Assay results: ChEMBL document CHEMBL5465560, “Selectivity Literature for EUbOPEN Chemogenomic Library” (2024)

Columns and labels:
[1] = target: T1, TGF-beta receptor type-1 (Homo sapiens) (UniProt P36897); details: at 10 µM
T1 sequence (whole entry): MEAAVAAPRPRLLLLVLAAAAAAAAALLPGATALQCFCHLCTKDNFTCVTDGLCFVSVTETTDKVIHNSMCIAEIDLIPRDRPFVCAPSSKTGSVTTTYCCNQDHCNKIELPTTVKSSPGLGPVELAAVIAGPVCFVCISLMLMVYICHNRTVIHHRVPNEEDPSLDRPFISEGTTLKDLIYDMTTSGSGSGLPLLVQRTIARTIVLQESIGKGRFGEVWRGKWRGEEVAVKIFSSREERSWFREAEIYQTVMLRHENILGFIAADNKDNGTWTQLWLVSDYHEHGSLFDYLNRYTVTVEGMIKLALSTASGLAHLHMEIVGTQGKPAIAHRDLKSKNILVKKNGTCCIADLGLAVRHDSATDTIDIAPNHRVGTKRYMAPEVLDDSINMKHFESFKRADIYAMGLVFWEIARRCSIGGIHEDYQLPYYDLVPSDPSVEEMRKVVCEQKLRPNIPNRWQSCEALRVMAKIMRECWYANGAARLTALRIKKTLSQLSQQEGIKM

[2] = tested on: Tyrosine-protein kinase ABL1 (Homo sapiens), P00519 [F317I]; experiment: Selectivity interaction (KinomeScan (DiscoverX)) EUB0000229b ABL1; details: at 1 µM
[3] = target: T2, Mitogen-activated protein kinase 13 (Homo sapiens) (UniProt O15264); experiment: Selectivity interaction (KinomeScan (DiscoverX)) EUB0000092b MAPK13; details: at 10 µM
T2 sequence (whole entry): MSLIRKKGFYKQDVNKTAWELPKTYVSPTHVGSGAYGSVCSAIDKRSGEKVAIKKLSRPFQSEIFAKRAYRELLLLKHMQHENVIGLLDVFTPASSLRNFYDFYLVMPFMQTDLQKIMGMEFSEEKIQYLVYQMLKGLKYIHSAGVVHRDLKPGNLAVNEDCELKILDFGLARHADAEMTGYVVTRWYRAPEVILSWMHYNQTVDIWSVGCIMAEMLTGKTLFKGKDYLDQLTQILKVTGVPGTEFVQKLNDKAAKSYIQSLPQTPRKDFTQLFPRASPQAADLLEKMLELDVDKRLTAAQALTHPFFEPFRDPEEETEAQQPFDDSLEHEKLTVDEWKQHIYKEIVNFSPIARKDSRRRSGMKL

[4] = target: Mitogen-activated protein kinase 7 (Homo sapiens) (UniProt Q13164); experiment: Selectivity interaction (Rxn Biology Kinase assay) EUB0001632a MAPK7; details: at 10 µM
[5] = target: T3, Dual specificity mitogen-activated protein kinase kinase 7 (Homo sapiens) (UniProt O14733); experiment: Selectivity interaction (KinomeScan (DiscoverX)) EUB0000607a MAP2K7; details: at 10 µM
T3 sequence (whole entry): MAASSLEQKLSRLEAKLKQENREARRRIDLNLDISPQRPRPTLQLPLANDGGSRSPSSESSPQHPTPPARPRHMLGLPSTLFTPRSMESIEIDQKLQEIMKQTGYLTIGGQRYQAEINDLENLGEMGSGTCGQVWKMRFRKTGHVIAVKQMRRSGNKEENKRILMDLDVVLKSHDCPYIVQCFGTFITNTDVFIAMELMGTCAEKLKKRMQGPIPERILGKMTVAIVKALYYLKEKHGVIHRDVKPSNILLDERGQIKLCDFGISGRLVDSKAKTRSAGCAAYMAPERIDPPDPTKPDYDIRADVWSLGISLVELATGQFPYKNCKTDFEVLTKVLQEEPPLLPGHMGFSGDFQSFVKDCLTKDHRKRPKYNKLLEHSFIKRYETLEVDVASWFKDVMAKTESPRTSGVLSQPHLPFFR

[6] = target: T4, Alpha-1A adrenergic receptor (Homo sapiens) (UniProt P35348); experiment: Selectivity interaction (Panel of non-epigenetic targets (kinases, GPCRs, ion channels, and transporters, Eurofins) ) EUB0000271b ADRA1A; details: at 1 µM
T4 sequence (whole entry): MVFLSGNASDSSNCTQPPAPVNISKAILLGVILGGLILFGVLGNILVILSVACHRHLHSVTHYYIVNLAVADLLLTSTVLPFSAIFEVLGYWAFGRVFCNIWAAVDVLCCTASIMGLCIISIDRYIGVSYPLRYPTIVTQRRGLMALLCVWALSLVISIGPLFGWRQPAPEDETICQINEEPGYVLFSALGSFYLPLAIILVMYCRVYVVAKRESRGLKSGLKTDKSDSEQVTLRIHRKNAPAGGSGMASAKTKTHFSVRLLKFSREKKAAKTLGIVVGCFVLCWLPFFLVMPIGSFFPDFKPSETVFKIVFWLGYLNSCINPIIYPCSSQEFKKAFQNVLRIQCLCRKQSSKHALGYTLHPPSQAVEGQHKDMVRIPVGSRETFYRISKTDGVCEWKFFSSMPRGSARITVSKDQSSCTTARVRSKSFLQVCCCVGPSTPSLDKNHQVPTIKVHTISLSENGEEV

[7] = target: Mitogen-activated protein kinase kinase kinase kinase 1 (Homo sapiens) (UniProt Q92918); experiment: Selectivity interaction (KinomeScan (DiscoverX)) EUB0000045b MAP4K1
[8] = target: Serine/threonine-protein kinase N2 (Homo sapiens, UniProt Q16513); experiment: Selectivity interaction (Kinase panel (literature)) EUB0001199aCl PKN2; details: at 1 µM
[9] = target: SRSF protein kinase 2 (Homo sapiens) (UniProt P78362); experiment: Selectivity interaction (Ambit KINOMEscan and KiNATiv profiling in Jurkat cells) EUB0000090b SRPK2; assay type: cell-based; details: at 1 µM
[10] = target: SRSF protein kinase 3 (Homo sapiens) (UniProt Q9UPE1); experiment: Selectivity interaction (KinomeScan (DiscoverX)) EUB0001619a SRPK3; details: at 1 µM
[11] = target: Ribosomal protein S6 kinase alpha-1 (Homo sapiens, UniProt Q15418); experiment: Selectivity interaction (KinomeScan (DiscoverX)) EUB0001619a RPS6KA1; details: at 1 µM

Sequence of Mitogen-activated protein kinase kinase kinase kinase 1 (Homo sapiens) (Q92918 whole entry, looked up): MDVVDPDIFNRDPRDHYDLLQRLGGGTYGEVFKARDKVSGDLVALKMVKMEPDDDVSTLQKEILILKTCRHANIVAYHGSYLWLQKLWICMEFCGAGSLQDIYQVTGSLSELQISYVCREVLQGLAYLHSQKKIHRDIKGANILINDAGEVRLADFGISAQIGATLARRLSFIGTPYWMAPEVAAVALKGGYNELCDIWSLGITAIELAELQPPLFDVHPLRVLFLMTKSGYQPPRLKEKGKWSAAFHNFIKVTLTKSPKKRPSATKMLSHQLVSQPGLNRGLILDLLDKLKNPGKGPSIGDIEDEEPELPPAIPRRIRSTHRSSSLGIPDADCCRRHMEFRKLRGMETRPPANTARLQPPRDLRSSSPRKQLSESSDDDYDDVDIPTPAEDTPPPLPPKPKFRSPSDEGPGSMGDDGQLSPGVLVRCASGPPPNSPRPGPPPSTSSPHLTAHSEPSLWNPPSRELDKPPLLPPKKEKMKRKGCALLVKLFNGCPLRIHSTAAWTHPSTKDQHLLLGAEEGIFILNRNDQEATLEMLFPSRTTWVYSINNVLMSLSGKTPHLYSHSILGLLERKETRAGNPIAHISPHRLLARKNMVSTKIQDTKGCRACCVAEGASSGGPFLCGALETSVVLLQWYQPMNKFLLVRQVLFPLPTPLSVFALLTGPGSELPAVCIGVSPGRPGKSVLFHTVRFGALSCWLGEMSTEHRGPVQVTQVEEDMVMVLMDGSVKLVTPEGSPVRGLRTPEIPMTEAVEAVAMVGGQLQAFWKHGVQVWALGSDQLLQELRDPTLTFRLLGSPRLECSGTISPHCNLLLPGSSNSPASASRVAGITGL
Sequence of SRSF protein kinase 3 (Homo sapiens) (Q9UPE1 whole entry): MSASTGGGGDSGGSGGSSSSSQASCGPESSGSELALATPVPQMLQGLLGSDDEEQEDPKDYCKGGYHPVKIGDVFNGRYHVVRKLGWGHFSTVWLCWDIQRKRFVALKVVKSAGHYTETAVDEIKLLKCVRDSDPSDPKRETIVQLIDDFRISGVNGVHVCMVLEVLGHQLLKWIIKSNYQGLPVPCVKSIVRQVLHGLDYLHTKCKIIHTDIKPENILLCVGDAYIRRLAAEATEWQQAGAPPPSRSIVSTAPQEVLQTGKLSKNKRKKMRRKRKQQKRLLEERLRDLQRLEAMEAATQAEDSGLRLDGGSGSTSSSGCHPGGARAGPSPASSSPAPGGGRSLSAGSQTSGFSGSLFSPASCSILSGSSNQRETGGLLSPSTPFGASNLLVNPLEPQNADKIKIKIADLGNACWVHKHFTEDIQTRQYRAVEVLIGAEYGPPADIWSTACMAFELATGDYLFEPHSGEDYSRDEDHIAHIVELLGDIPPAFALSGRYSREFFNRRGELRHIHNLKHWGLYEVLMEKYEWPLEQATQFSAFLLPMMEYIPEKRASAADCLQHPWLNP
Sequence of SRSF protein kinase 2 (Homo sapiens) (P78362 whole entry, looked up): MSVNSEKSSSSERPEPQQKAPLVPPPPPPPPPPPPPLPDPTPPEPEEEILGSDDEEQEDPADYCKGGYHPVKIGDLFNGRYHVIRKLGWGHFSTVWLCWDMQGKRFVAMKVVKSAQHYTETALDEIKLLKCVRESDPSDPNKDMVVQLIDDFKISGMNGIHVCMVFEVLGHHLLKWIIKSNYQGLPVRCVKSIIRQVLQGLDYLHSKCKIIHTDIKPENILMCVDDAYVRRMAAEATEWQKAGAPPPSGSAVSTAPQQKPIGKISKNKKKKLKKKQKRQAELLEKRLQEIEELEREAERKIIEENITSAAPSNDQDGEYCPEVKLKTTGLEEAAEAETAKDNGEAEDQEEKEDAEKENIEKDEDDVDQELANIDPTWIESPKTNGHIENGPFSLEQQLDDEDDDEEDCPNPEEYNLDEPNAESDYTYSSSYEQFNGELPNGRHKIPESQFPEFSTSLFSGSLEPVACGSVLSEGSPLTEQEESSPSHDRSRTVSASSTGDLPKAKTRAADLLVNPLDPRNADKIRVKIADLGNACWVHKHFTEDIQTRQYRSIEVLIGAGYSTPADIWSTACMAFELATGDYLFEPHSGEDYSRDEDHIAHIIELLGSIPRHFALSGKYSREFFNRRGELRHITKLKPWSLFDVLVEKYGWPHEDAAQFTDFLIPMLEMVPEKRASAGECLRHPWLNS
Sequence of Tyrosine-protein kinase ABL1 (Homo sapiens), P00519 [F317I] (P00519 whole entry F317I): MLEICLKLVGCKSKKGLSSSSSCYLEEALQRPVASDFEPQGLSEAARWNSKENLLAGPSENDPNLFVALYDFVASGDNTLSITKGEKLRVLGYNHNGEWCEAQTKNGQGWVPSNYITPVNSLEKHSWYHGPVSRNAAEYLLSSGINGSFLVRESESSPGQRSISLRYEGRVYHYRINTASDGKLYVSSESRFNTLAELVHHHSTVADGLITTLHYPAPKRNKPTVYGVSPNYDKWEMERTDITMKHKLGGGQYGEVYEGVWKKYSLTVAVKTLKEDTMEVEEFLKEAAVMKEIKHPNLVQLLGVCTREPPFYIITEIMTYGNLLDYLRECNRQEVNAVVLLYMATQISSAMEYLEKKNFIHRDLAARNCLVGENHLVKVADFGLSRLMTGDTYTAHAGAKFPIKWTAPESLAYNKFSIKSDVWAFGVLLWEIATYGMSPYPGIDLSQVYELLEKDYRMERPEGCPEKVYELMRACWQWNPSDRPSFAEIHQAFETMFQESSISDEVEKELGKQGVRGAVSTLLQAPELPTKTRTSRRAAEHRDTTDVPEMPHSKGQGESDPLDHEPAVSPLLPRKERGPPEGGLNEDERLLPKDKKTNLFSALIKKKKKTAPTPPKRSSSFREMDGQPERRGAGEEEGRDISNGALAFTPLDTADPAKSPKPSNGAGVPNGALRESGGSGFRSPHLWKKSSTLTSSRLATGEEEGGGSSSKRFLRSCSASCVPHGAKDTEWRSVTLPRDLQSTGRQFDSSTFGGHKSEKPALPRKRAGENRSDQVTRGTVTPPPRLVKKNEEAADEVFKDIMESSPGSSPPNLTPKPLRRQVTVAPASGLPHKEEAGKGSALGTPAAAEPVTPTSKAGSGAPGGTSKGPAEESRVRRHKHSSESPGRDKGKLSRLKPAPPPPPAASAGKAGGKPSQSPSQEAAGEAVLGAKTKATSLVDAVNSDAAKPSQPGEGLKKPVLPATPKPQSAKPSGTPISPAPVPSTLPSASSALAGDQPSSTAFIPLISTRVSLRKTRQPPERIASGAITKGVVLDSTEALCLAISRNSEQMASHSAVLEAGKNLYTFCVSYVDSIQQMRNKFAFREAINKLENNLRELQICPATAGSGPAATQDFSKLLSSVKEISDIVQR
Sequence of Serine/threonine-protein kinase N2 (Q16513 whole entry, looked up): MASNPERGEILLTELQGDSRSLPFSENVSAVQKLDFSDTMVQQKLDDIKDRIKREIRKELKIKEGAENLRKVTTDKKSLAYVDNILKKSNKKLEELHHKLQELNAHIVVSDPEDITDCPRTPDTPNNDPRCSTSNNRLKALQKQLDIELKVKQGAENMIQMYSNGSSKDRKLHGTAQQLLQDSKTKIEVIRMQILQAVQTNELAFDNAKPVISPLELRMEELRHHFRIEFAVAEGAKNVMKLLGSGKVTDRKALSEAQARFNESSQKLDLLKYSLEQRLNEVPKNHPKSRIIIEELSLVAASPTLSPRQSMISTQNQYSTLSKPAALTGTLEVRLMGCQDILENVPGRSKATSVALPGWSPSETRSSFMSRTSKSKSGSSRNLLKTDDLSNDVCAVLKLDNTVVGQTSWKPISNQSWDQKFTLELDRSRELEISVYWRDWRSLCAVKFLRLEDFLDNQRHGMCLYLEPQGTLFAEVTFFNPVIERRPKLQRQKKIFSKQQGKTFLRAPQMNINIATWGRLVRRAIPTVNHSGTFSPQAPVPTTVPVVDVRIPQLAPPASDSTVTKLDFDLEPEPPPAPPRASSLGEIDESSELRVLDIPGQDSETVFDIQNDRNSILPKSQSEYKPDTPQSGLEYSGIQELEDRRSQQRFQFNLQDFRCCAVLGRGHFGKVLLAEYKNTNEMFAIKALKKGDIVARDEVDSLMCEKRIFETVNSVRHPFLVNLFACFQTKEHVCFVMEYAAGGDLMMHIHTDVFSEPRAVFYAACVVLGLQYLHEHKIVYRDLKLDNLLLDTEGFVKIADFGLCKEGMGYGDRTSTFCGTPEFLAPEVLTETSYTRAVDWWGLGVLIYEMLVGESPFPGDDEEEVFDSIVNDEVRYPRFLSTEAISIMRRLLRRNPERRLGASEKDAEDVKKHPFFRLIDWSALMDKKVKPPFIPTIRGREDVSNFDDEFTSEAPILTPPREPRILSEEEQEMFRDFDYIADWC
Sequence of Mitogen-activated protein kinase 7 (Homo sapiens) (Q13164 2-816 limits assumed): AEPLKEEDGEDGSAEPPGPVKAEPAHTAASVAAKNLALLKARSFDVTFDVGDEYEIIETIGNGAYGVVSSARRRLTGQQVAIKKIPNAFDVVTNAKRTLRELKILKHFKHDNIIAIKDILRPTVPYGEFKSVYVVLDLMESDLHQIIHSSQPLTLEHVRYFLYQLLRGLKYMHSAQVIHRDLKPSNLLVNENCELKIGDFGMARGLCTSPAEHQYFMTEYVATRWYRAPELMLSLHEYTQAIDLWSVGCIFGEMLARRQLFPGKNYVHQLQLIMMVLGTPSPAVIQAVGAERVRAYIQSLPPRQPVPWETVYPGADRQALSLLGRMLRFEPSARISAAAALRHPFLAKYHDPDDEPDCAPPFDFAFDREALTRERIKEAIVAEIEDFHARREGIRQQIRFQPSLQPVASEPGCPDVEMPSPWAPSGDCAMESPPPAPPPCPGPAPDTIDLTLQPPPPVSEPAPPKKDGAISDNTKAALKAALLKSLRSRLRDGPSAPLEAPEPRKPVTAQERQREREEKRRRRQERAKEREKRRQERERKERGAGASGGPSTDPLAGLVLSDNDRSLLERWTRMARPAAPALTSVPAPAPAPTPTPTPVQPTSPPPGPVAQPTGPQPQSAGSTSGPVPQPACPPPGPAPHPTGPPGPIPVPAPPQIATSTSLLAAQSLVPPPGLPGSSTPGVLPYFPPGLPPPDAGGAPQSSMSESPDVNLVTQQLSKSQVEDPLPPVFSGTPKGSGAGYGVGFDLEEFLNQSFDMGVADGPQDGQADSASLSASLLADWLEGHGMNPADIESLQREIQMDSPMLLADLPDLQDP

CCN(CC)CCCCNc1ncc2cc(-c3cc(OC)cc(OC)c3)c(NC(=O)NC(C)(C)C)nc2n1
% of control [1]: 100%

COc1cc(N(C)c2ccnc3ccc(C(F)(F)F)cc23)cc(OC)c1OC
% binding [2]: 96%

CCC(=O)N1CCN(c2ccc(-n3c(=O)ccc4cnc5ccc(-c6cnc7ccccc7c6)cc5c43)cc2C(F)(F)F)CC1
% of control [3]: 39%

Cn1cc(-n2cnc3c(NCc4nc5cc(Cl)c(Cl)cc5[nH]4)nc(N4CCOCC4)nc32)cn1
% of inhibition [4]: -29.8%

CNC(=O)Nc1ccc(-c2nc(N3CC4CCC(C3)O4)c3cnn(C4CCC5(CC4)OCCO5)c3n2)cc1
% of control [5]: 100%

Cc1cc(C)cc([C@@H]2c3cc(C)ccc3NC(=O)CN2C(=O)c2ccc(Br)s2)c1
% of inhibition [6]: 4%

C=CC(=O)Nc1cc(-n2c(=O)ccc3cnc4ccc(-c5ccc(NS(C)(=O)=O)cc5)cc4c32)ccc1C
% of control ([7]; at 1 µM): 100%
% of control ([7]; at 10 µM): 94%

CN1Cc2nccc(-c3cn(C)nc3-c3ccc(F)cc3)c2C1=O
% of inhibition [8]: 2%

CN(C)C/C=C/C(=O)Nc1ccc(C(=O)N2CCCC(Nc3ncc(Cl)c(-c4c[nH]c5ccccc45)n3)C2)cc1 (configuration not stated)
% of control [9]: 98%

N#Cc1cccc(-c2c[nH]c3ncnc(N4CCOCC4)c23)c1
% of control [10]: 27%
% of control [11]: 27%
